According to patent US12098118B2 (Regents of the University of Minnesota, priority 2018, dated 2024):
Like-named read-outs stand apart in the source and are kept apart here.

Legend:
[1] = system: mice; assay: acute in vivo bioassay of spinal opioid analgesic tolerance (ENDO-2 pre-treatment, warm water immersion tail flick test)
Source text: To evaluate the effects of the compounds in opioid tolerance an acute in vivo bioassay of opioid analgesic tolerance was employed. In this instance, either a large dose of the mu opioid receptor selective neuropeptide ENDO-2 is given or vehicle. When the analgesic effects are no longer evident, a second analgesic dose of ENDO-2 is given. The second analgesic dose of ENDO-2 is effective in the group pre-treated with saline, but not in the group that was pre-treated with the large dose of ENDO-2. When agmatine or when one of the SSA is given together with the large pre-treatment dose of ENDO-2, the second analgesic dose of ENDO-2 is effective. In this bioassay, agmatine and most of the SSAs prevented the development of opioid tolerance.
Formula I compounds from Table 2 were evaluated for their impact on the development of opioid analgesic tolerance when dosed central (intrathecally) and systemically (intraperitoneally). […] When a high dose of ENDO-2 is intrathecally injected a subsequent analgesic dose is no longer effective (30 minutes later) (Stone et al., 1997). This is a model of opioid-induced analgesic tolerance.
When that second group received a second injection of ENDO-2 (same dose as in the SAL group), the analgesic effect was not observed. Analgesic tolerance to ENDO-2 was, therefore, induced. […] AG 4 nmol (third bar from left).

[2] = system: mice; assay: development of central morphine tolerance (intrathecal morphine, warm water tail flick test); assay type: in vivo; conditions: for ED50 (nmol, i.t.): tail flick day 4
Procedure: On day 4, four cumulative doses of morphine were given intrathecally to assess tolerance in the warm water tail flick test.
(§1) Doses were administered t.i.d. every 8 hours for 4 days. On day 6, four cumulative doses of morphine were given subcutaneously to assess tolerance in the warm water (52° C.) tail flick test.

[3] = system: mice; assay: development of chronic systemic morphine tolerance (s.c. morphine, warm water 52° C. tail flick test); assay type: in vivo; conditions: for development of systemic morphine tolerance: systemic co-administration with morphine (FIGS. 7B-D)
Procedure: as §1

[4] = system: mice with chronic pain induced by nerve-injury; assay: spinal nerve injury-induced neuropathic pain, von Frey monofilament tactile hypersensitivity; assay type: in vivo
[5] = system: nerve-injured mice; assay: rotarod assay of motor dysfunction and sedation; conditions: for rotarod performance: intravenously administered, doses effective in nerve-injured mice, 30 minutes post-injection
[6] = cardiovascular measures / heart rate after i.v. injection; conditions: in vivo
[7] = system: female mice; assay: oral oxycodone self-administration model of opioid addiction (active vs control lever); assay type: in vivo
Procedure: FIGS. 6A and 6B show an in vivo model of opioid addiction in mice. […] Open symbols represent the lever pressing of mice on the “control” lever that result in no reward. Solid symbols represent the lever pressing of mice on the “active lever” which results in delivery of a 70 μL volume of oxycodone into a receptacle. The mice lick or drink the opioid from the receptacle.
Formula I compounds were assessed for similar effects in a model of oral oxycodone self-administration. […] Standard enclosed operant conditioning chambers modeled opioid addiction where in response to a light cue, mice have an opportunity to choose between one of two levers. Pressing one lever (the “Active” lever) results in delivery of a small quantity of oxycodone to a drinking receptacle where the mouse can lick or drink the fluid. Pressing the other lever (termed “Control” lever) results in no reward. In this experiment, female mice were separated into two groups; both groups were trained to lever press for oxycodone reward after pressing the “Active” lever of a two lever choice. Initially one lever press results in one delivery of opioid fluid. Pressing the “control” lever offers no reward. […] On day 15, they were required to press the active lever 3 times to seek the reward. […] The mice were given six injections over a period of 8 days. […] Responses were monitored from Day 20-40 of the experiment. […]

[8] = in vivo
[9] = system: nerve-injured mice; conditions: intrathecal, previously observed; cited from earlier work
[10] = system: rats; conditions: Morgan et al. 2002; cited from earlier work
[11] = morphine i.t. ED50 (interval in brackets) after pre-treatment Morphine (10 nmol, i.t.) + compound (10 nmol, i.t.) or VEH b.i.d. 3 days
[12] = co-administered intrathecally (it) with tolerance-inducing ENDO-2 pre-treatment, agmatine 4 nmol
[13] = delivered systemically, 100 mg/kg ip, with intrathecal ENDO-2 pre-treatment
[14] = delivered systemically, ip, dose not given
[15] = IV, 0.45, 1.35, 4.5 micromoles/kg, induction and maintenance phase, ipsilateral hindpaw

With `CCOC(=O)/N=C(/N)NCCCCNC(=O)OCC` [J-1, ethyl (amino((4-((ethoxycarbonyl)amino)butyl)amino)methylene)carbamate] as the molecule, how does the “development of opioid analgesic tolerance to ENDO-2” value (“development … to ENDO-2” below) ([1]; systemically, dose range of 1-30 mg/kg) read?
Its value is “did not prevent the development of opioid analgesic tolerance”.

And the “development of central morphine tolerance” value ([2]; intrathecal co-administration with morphine (FIG. 7A))?
Its value is “prevented the development of central morphine tolerance”.

And the “ED50 (nmol, i.t.)” value [2, 11]?
The value was 2.86 (2.41, 3.40) nmol.

What about the “ED50 (nmol, i.t.)” value ([2]; morphine i.t. ED50 (interval in brackets) after pre-treatment Saline + compound (10 nmol, i.t.) b.i.d. 3 days) of the same molecule?
Its value is 3.82 (2.95, 4.94) nmol.

And the “development of systemic morphine tolerance” value [3]?
The value was “reduces or prevents the development of systemic morphine tolerance”.

And the “time to onset of effect compared to agmatine” value ([4]; mouse, in vivo)?
Its value is “significantly earlier time to onset of effect”.

Which “development … to ENDO-2” value [1, 12] does the source give for `CCOC(=O)NCCCCNC(=N)N` [J-2, ethyl (4-guanidinobutyl)carbamate] here?
The value was “prevented the development of opioid analgesic tolerance”.

What about the “development … to ENDO-2” value [1, 13] of the same molecule?
The value was “prevented the development of opioid analgesic tolerance”.

What about the “development of systemic morphine tolerance” value [3] of the same molecule?
The value was “reduces or prevents the development of systemic morphine tolerance”.

Which results are given for `CCOC(=O)/N=C(\NCCCCNC(C)=O)NC(=O)OCC` [J-3]?
development of opioid analgesic tolerance to ENDO-2 [1, 12]: prevented the development of opioid analgesic tolerance; development of opioid analgesic tolerance to ENDO-2 [1, 14]: prevented the development of opioid analgesic tolerance; response compared to the response of agmatine ([4]; IV, 0.45, 1.35, 4.5 micromoles/kg): No significant difference; hindpaw withdrawal thresholds (von Frey) [4, 15]: the hindpaw withdrawal thresholds elevated toward control levels of responding; rotarod performance [5]: did not impact rotarod performance; impact on cardiovascular measures [6]: no impact on cardiovascular measures

Which results are given for `CC(=O)NCCCCN/C(=N\C(=O)OC(C)(C)C)NC(=O)OC(C)(C)C` [J-4, 4-(2,3-bis(tert-butyloxycarbonyl)guanidino)butylacetamide]?
development of opioid analgesic tolerance to ENDO-2 [1, 14]: prevented the development of opioid analgesic tolerance; hindpaw withdrawal thresholds (von Frey) [4, 15]: the hindpaw withdrawal thresholds elevated toward control levels of responding; reduction of established neuropathic pain compared with agmatine at the same dose ([4]; IV, 1.35 micromoles/kg, maintenance phase for J-4 (FIG. 2F vs 2B)): distinctly greater than that of agmatine at the same dose; preference for active versus control lever (oxycodone) ([7]; intraperitoneal (IP) injection prior to session (FIG. 6B)): showed greatly reduced preference for the active versus the control lever; preference for active versus control lever (oxycodone) ([7]; intravenous injections, 30 mg/kg, six injections over 8 days): showed little preference for the lever after injections were initiated; rotarod performance [5]: did not impact rotarod performance; impact on cardiovascular measures [6]: no impact on cardiovascular measures

Which results are given for `CC(=O)NCCCCNC(=N)N` [J-5, N-(4-guanidinobutyl)acetamide]?
development of opioid analgesic tolerance to ENDO-2 [1, 12]: prevented the development of opioid analgesic tolerance; development of opioid analgesic tolerance to ENDO-2 [1, 13]: prevented the development of opioid analgesic tolerance

Which “development … to ENDO-2” value [1, 12] does the source give for `CCOC(=O)/N=C(/N)NCCCCNC(C)=O` [J-6] here?
The value was “prevented the development of opioid analgesic tolerance”.

And the “development … to ENDO-2” value [1, 13]?
Its value is “prevented the development of opioid analgesic tolerance”.

For `CCOC(=O)/N=C(/N)NCCCCN` [J-7, 4-(2-(ethoxycarbonyl)guanidino) butan-1-aminium 2,2,2-trifluoroacetate], which “development … to ENDO-2” value [1, 13] is on record?
The value was “prevented the development of opioid analgesic tolerance”.

And the “development … to ENDO-2” value ([1]; systemically delivered, 10 mg/kg dose)?
Its value is “prevented the development of opioid analgesic tolerance”.

Which “development … to ENDO-2” value [1, 12] does the source give for `CCOC(=O)/N=C(\NCCCCN)NC(=O)OCC.Cl` [J-8, 4-(2,3-bis(ethoxycarbonyl)guanidino)butan-1-aminium chloride] here?
Its value is “prevented the development of opioid analgesic tolerance”.

What about the “development … to ENDO-2” value [1, 14] of the same molecule?
Its value is “prevented the development of opioid analgesic tolerance”.

What about the “hindpaw withdrawal thresholds (von Frey)” value ([4]; IV, five doses 0.045, 0.0135, 0.45, 1.35, 4.5 micromoles/kg (approximately 1-100 mg/kg), induction phase) of the same molecule?
Its value is “the hindpaw withdrawal thresholds elevated significantly toward control levels of responding in a dose-dependent manner”.

What about the motor impairment ([5]; early side effects studies) of the same molecule?
Its motor impairment is “no impact”.

What about the “impact on cardiovascular measures” value [6] of the same molecule?
Its value is “no impact”.

For `CN1CC[C@]23c4c5ccc(O)c4O[C@H]2[C@@H](O)C=C[C@H]3[C@H]1C5` [Morphine, morphine, reference compound], which “ED50 (nmol, i.t.)” value [2, 11] is on record?
Its value is 10.84 (4.94, 23.82) nmol.

And the ED50 ([3]; Mus musculus, sc, 144 h, morphine s.c. ED50 after pre-treatment Morphine (10 mg/kg, s.c.) + compound (3 mg/kg s.c.) or VEH t.i.d. 4 days, tail flick day 6, read-out: ED50 (95% CI) (mg/kg, s.c.))?
The ED50 was 24.9 mg/kg.

Which “development … to ENDO-2” value [1, 12] does the source give for `N=C(N)NCCCCN` [agmatine, 1-(4-aminobutyl)guanidine, reference compound] here?
The value was “protected against the induction of opioid tolerance”.

What about the “development of systemic morphine tolerance” value [3] of the same molecule?
Its value is “reduces or prevents the development of systemic morphine tolerance”.

And the “hindpaw withdrawal thresholds (von Frey)” value [4, 15]?
The value was “the hindpaw withdrawal thresholds elevated toward control levels of responding”.

What about the “impact on cardiovascular measures” value [8] of the same molecule?
The value was “no impact on cardiovascular measures”.

What about the rotarod performance [9] of the same molecule?
Its rotarod performance is “does not impact rotarod performance”.

And the heroin-induced self-administration [10]?
The heroin-induced self-administration was “diminishes heroin-induced self-administration in rats”.

And the rotarod performance [5]?
Its rotarod performance is “did not impact rotarod performance”.
